The test concerns the target Cyclin-dependent kinase 11B (Homo sapiens) (UniProt P21127). Description: Inhibition of GST-tagged human recombinant CDK11 (1 to 795 residues) expressed in baculovirus expression system.

The values that follow come from BindingDB's records for PubMed 30795990 (n/a, 2019).

The IC50 is the point on the concentration scale where inhibition reaches its midpoint.

The structures appear in SMILES notation.

Chain of Cyclin-dependent kinase 11B (Homo sapiens) (P21127 whole entry, looked up, the tested form may be a part): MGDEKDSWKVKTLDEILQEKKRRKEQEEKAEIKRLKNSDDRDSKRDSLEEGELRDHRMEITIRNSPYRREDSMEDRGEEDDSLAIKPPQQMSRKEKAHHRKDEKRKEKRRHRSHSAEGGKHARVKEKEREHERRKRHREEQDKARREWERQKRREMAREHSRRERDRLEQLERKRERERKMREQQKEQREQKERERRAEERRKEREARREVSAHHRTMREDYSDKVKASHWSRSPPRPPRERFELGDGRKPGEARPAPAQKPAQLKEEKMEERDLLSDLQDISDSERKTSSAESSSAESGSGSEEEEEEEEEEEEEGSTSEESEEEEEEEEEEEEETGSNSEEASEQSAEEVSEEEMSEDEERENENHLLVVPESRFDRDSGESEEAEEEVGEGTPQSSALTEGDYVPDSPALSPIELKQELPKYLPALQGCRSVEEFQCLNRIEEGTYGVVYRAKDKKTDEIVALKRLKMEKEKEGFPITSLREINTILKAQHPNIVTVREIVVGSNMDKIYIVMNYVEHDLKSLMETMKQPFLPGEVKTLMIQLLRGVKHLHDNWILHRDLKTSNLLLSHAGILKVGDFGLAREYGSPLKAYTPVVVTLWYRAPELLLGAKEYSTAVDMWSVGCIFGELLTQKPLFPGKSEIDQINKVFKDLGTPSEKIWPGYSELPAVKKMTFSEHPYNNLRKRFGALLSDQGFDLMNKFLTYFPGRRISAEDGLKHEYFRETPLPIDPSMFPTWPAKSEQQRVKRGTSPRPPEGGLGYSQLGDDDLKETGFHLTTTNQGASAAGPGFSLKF

Consider `O=C(c1ccc2c(c1)OCCO2)C1CCN(c2ncnc3sccc23)CC1`, for which the IC50 is above 1000 nM.
